# Key:
# Conditions in all cases: 72 h
# U2OS [1] = test: drug sensitivity score (DSS) for viability; higher = more toxic; extreme values may be limits of the assay
# Calu-3 [2] = test: as above
# HepG2 [3] = test: as above
# Vero E6 [4] = test: as above
# Caco-2 [5] = test: as above
# U2OS [6] = test: relative viability EC50 (midpoint between 100% and the lowest measured viability); higher = less toxic
# Calu-3 [7] = test: as above
# Vero E6 [8] = test: as above
# U2OS [9] = test: cell viability relative to DMSO; higher = less toxic
# Calu-3 [10] = test: as above
# HepG2 [11] = test: as above
# Vero E6 [12] = test: as above
# Caco-2 [13] = test: as above
# Caco-2 [14] = test: relative viability EC50 (midpoint between 100% and the lowest measured viability); higher = less toxic
# HepG2 [15] = test: as above
SMILES,drug sensitivity score (U2OS [1]),drug sensitivity score (Calu-3 [2]),drug sensitivity score (HepG2 [3]),drug sensitivity score (Vero E6 [4]),drug sensitivity score (Caco-2 [5]),relative viability EC50 (U2OS [6]) [µM],relative viability EC50 (Calu-3 [7]) [µM],relative viability EC50 (Vero E6 [8]) [µM],cell viability (U2OS [9]; 1 nM) [%],cell viability (U2OS [9]; 10 nM) [%],cell viability (U2OS [9]; 100 nM) [%],cell viability (U2OS [9]; 1000 nM) [%],cell viability (U2OS [9]; 10000 nM) [%],cell viability (Calu-3 [10]; 1 nM) [%],cell viability (Calu-3 [10]; 10 nM) [%],cell viability (Calu-3 [10]; 100 nM) [%],cell viability (Calu-3 [10]; 1000 nM) [%],cell viability (Calu-3 [10]; 10000 nM) [%],cell viability (HepG2 [11]; 1 nM) [%],cell viability (HepG2 [11]; 10 nM) [%],cell viability (HepG2 [11]; 100 nM) [%],cell viability (HepG2 [11]; 1000 nM) [%],cell viability (HepG2 [11]; 10000 nM) [%],cell viability (Vero E6 [12]; 1 nM) [%],cell viability (Vero E6 [12]; 10 nM) [%],cell viability (Vero E6 [12]; 100 nM) [%],cell viability (Vero E6 [12]; 1000 nM) [%],cell viability (Vero E6 [12]; 10000 nM) [%],cell viability (Caco-2 [13]; 1 nM) [%],cell viability (Caco-2 [13]; 10 nM) [%],cell viability (Caco-2 [13]; 100 nM) [%],cell viability (Caco-2 [13]; 1000 nM) [%],cell viability (Caco-2 [13]; 10000 nM) [%],relative viability EC50 (Caco-2 [14]) [µM],relative viability EC50 (HepG2 [15]) [µM]
CNC(=O)c1c(F)cccc1Nc1nc(Nc2cc3c(cc2OC)CCN3C(=O)CN(C)C)nc2[nH]ccc12,2,0,11.5,0,4.1,> 10,> 10,> 10,97.7,98.9,100,87.9,78.5,99.4,104,103,95.1,91.3,100,101,77.3,53,56.5,101,97,94.1,93.4,101,103,93.4,92.3,85.7,52.8,,
COc1ccc(-n2[nH]c3c4c(ncc3c2=O)CCCCC4)cc1,0,0,,0,0,> 10,> 10,> 10,96.4,100,94.2,103,95.9,110,98.7,99.8,97.2,112,,,,,,102,105,100,98.2,99.6,99.9,107,95.7,107,94.2,> 10,
COc1cccc(-c2cc(=O)c3ccccc3o2)c1N,0,0.2,2.9,0,0,> 10,> 10,> 10,99.5,97.7,98.7,101,92,107,103,103,106,83.7,99.7,87.8,94.1,91.8,64.2,109,108,105,104,92,98.5,108,92.7,95.9,91.4,> 10,
COc1ccccc1N1CCN(CCN(C(=O)C2CCCCC2)c2ccccn2)CC1,0,0,,0,0,> 10,> 10,> 10,95.6,99.6,102,100,95.5,93.6,86.7,99,92.2,84.3,,,,,,104,102,104,97.2,99.1,99.1,101,93.5,102,94,> 10,
Cc1cc(CN2CCN(c3c(Br)cnc4nc(-c5ccc(N6CCN(C)CC6)cc5)[nH]c34)CC2)no1,0.8,0,6,1.5,0.6,,> 10,> 10,98.7,106,98.1,102,74.8,97.8,103,94.2,114,105,101,98,106,65.6,59.9,96,96.6,94.1,83.6,84.2,101,99.3,99.7,96.8,84.7,> 10,
Fc1ccc(C(OCCN2CCN(C/C=C/c3ccccc3)CC2)c2ccc(F)cc2)cc1,0,0,1.8,0.4,0.9,> 10,> 10,> 10,103,100,103,98.4,94.8,97.8,106,110,99.7,95.3,87.6,101,101,96.2,72.1,99.6,106,101,96,86.7,102,100,104,94.2,83.5,> 10,
c1ccc(N2CCN(CCCOc3ccc4c(c3)OCO4)CC2)cc1 [BP-554],,0,0,0,0,,> 10,> 10,,,,,,101,107,99.5,103,110,107,93.1,95.3,102,103,94.5,94.6,94.7,96.2,96,107,102,101,105,98.7,> 10,> 10
O=C1C=CC(=O)C2=C1C1c3ccccc3C2c2ccccc21 [INCA-6],0,0,1.1,0,0,> 10,> 10,> 10,98,93.7,98.2,97.5,88.2,98.2,99.3,96.7,95.7,104,102,112,96.8,106,68.5,93.3,96.7,87,96.1,105,97.5,93.5,94.5,96.6,90.1,> 10,
Cc1nn(C)c2nc(NNC(=O)Nc3cc(Cl)nc(Cl)c3)cc(C(C)C)c12 [JTE-013],0,0,1.7,0,0.4,> 10,> 10,> 10,107,100,99.4,93.6,92.9,101,101,97.5,110,92,97.8,93.1,104,95.6,74.2,99.1,105,95.7,100,93.9,96.7,100,105,100,82.4,> 10,
CC(=O)Oc1ccccc1C(=O)Oc1cccc(CO[N+](=O)[O-])c1 [NO-ASA],0,0,1.7,0,,> 10,> 10,> 10,98,98.5,99.4,101,93.1,96.3,101,98.9,103,107,95.4,104,100,88.9,79.9,102,108,101,89.7,105,,,,,,,> 10
Cc1ccc(S(=O)(=O)Nc2ccc3c(c2)c(C(=O)C(F)(F)F)cn3CC(=O)N[C@@H](CC(C)C)C(=O)O)cc1 [NTRC-824],0,0,,0,0,> 10,> 10,> 10,102,109,102,102,95.3,88.4,101,94.2,102,93.5,,,,,,96.9,98.1,100,94.7,95.4,94.7,103,95,102,89.7,> 10,
CCOc1ccc(NC(=S)N2CCC(C(O)(c3ccccc3)c3ccccc3)CC2)cc1 [SF-11],0,0,0,0,,> 10,> 10,> 10,101,96.6,98.4,98.2,100,100,107,96.7,104,96.5,99.5,100,103,109,91.7,101,99.9,98.4,99.8,102,,,,,,,> 10
O=C(Nc1cc(-c2ccccc2)nn1-c1ccccc1F)c1ccc([N+](=O)[O-])cc1 [VU1545],,0,0,0,,,> 10,> 10,,,,,,101,97.7,92.9,98,87.5,107,83.9,104,89.6,97.5,111,105,107,108,99.9,,,,,,,> 10
C=CC(=O)Nc1cccc(Oc2nc(Nc3ccc(N4CCN(C)CC4)cc3OC)ncc2Cl)c1 [WZ-4002],0,3.5,0,2,0.3,> 10,,> 10,94.5,101,98.9,99.3,93.5,94.4,97,90.8,88.6,56.9,98.1,101,101,104,109,98.6,102,103,88.4,78.1,101,95.9,94.9,94.4,83.7,> 10,> 10
Cc1cc(C)c(NC(=O)N(Cc2ccc3c(c2)Cc2ccccc2-3)C2CCCCCC2)c(C)c1 [YM-750],1,2.4,3.2,0,2.3,> 10,> 10,> 10,97.8,99.8,94.8,94.6,79.9,94.1,95.3,84.9,85.6,83.3,96.2,93.5,103,92.9,59.8,96.9,98.1,91.9,101,88.3,98.6,100,96.6,100,55,,

# From the supplement of paper PMC13380429
